This note sets out measurements from ChEMBL document CHEMBL1201862, “PubChem BioAssay data set” (2004).

Calls of active or inactive are those of the source. Bounds are passed on as bounds.

Experiment [1] relates to BJ. The experiment in a line: cytotoxicity toward BJ-TERT-LT-ST fibroblasts, dose response, cell-based, RAS-independent, luminescence (AID 1935).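 Also: BJ fibroblasts immortalized with TERT plus LT and ST oncogenes.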 In kind it is functional. As to conditions: Homo sapiens.
In experiment [2] the test system is BJ. The experiment in a line: cytotoxicity toward BJ-TERT fibroblasts, dose response, cell-based, RAS-independent, luminescence (AID 1933). The experiment is classed as functional. To be noted: Homo sapiens.
For experiment [3], the system named is BJ. The experiment in a line: cells. As to conditions: Homo sapiens. In kind it is functional, cell-based.
Experiment [4] can be described thus: cytotoxicity toward DRD oncogenic fibroblasts, dose response, cell-based, non-viral oncogenic, luminescence (AID 1934). The experiment is classed as functional. To be noted: Homo sapiens.
Experiment [5] can be described thus: cells. The experiment is classed as functional, cell-based.
The nature of experiment [6]: cells. The experiment is classed as functional, cell-based. The source holds these as a separate data set.
Experiment [7] can be described thus: THP-1 cell cytotoxicity, dose response, cytotoxicity control for Vif-APOBEC3G degradation inhibitor project, THP-1 cells (AID 1117359). To be noted: Human immunodeficiency virus 1, THP-1. The experiment is classed as functional.
Experiment [8] in a line: microbe, parasite or virus in culture. As to conditions: Mycobacterium tuberculosis. The experiment is classed as functional.
For experiment [9], the target named is Eukaryotic translation initiation factor 4E (Mus musculus, UniProt P63073). The experiment in a line: eIF4E–eIF4G protein interaction inhibitors, dose response, biochemical, TR-FRET (AID 855).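 Also: potency for disrupting eIF4E binding to eIF4GI seen as loss of FRET.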 In kind it is functional.
Experiment [10] in a line: inhibitors of PGC1a acetylation in cells, dose response, cell-based, cherry-picked samples (AID 720514).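 Also: potency may reflect raised or lowered acetylation signal.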 In kind it is functional.
The target in the next experiment is Paired box protein Pax-8 (Homo sapiens, UniProt Q06710). The experiment in a line: inhibitors of PAX8-driven TPO luciferase reporter, dose response, RMG-I cells, cherry-pick (AID 687027).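 Also: luciferase reporter driven by Pax8 target thyroperoxidase promoter measured by SteadyGlo luminescence.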 In kind it is functional, cell-based. (In general: In a reporter assay the amount or activity of a reporter protein is the signal.)
A short description of experiment [11]: cytotoxicity in OVCAR8 ovarian cancer cells, dose response, PAX8 project, cell-based, plate reader, dry powder samples (AID 743197). In kind it is functional. To be noted: OVCAR-8.
A short description of experiment [12]: LGR2 antagonists, dose response, cell-based, HEK293, CRE-luciferase reporter, cherry pick, set 2 (AID 743343).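 Also: transfected cells were stimulated with diluted bursicon conditioned medium after compound addition.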 The experiment is classed as functional.
Experiment [13] is described as follows: cells. In kind it is functional, cell-based. This is another data set of the same source.
Experiment [14] addresses T1, Trace amine-associated receptor 1 (Homo sapiens, UniProt Q96RJ0).
T1 sequence (Q96RJ0 whole entry): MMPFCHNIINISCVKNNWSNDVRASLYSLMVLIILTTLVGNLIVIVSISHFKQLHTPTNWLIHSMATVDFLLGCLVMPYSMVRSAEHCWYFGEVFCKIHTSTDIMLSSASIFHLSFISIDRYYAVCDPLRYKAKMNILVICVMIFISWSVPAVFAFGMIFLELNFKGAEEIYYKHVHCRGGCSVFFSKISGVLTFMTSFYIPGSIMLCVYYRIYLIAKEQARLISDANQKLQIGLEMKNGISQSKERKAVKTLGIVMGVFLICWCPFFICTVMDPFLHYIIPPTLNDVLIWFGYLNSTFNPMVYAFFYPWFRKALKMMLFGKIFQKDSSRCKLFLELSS
The experiment in a line: Fluorescence-based cell-based high throughput dose response assay to identify agonists of the human trace amine associated receptor 1 (TAAR1). In kind it is functional.

The nature of experiment [15]: cells. In kind it is functional, cell-based. This is another data set of the same source.
Experiment [16] concerns the target T1, Trace amine-associated receptor 1. The experiment in a line: Counterscreen for agonists of the human trace amine associated receptor 1 (hTAAR1): Fluorescence-based cell-based high throughput dose response assay to identify hTAAR1 agonist that also desensitize TAAR1 receptor response. The experiment is classed as functional.
Experiment [17] can be described thus: cytotoxicity in HEK-293T cells, dose response, cytotoxicity control for TCR NF-kB inhibitor project, luminescence, T-cell screen hits (AID 489026).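 Also: cells exposed to compound about 14 hours before the viability readout.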 The experiment is classed as functional, cell-based.
Experiment [18] is described as follows: insulin promoter down-regulators in MIN6 cells, imaging, high-content screening, mouse beta cells (AID 1628). In kind it is functional.
The nature of experiment [19]: cytotoxicity in MIN6 insulinoma cells, dose response, cytotoxicity control, cell-based, mouse insulinoma (AID 2122).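 Also: confirmatory high-throughput counterscreen run to flag cytotoxic compounds; mouse MIN-6 beta cells carrying an insulin promoter eGFP reporter.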 The experiment is classed as functional.
For experiment [20], the target named is T2, Heat shock factor protein 1 (Mus musculus, UniProt P38532).
T2 sequence (P38532 whole entry): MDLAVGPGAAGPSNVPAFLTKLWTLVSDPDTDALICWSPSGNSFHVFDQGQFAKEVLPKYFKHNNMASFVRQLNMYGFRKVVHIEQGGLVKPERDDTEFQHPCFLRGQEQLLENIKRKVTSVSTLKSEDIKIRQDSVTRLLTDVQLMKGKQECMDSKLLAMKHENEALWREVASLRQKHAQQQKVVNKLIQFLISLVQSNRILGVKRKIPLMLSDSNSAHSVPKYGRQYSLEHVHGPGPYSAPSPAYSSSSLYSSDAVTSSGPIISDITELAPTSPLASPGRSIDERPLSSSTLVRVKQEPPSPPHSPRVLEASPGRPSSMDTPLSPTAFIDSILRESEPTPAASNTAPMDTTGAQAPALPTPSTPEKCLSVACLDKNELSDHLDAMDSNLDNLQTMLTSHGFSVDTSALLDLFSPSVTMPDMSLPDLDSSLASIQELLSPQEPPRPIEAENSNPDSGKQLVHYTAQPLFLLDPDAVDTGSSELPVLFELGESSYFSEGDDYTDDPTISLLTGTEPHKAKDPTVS
The experiment in a line: HSF1 potentiators in luciferase reporter cells, confirmation, cell-based, NIH3T3, luminescence, dose retest (AID 435004).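 Also: stress induced by proteasome inhibitor MG132 added 30 min after compound; luciferase reporter driven by HSF1 response element in NIH3T3 cells; actives raise luminescence as potentiators of the MG132 stress response.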 In kind it is functional.

Experiment [21] in a line: IGROV1 ovarian cancer cell cytotoxicity, dose response, PAX8 inhibitor project, plate reader, dry powder samples (AID 743043). The experiment is classed as functional, cell-based. To be noted: IGROV-1.
A short description of experiment [22]: P. falciparum ATP4 D1247Y mutant growth inhibitors, dose response, NITD609-resistant line, SYBR Green, dry powder (AID 1159571).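 Also: parasites synchronized at ring stage by sorbitol before testing.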 The experiment is classed as functional, cell-based.
The nature of experiment [23]: P. falciparum Dd2 growth inhibitors, dose response, SYBR Green, dry powder samples (AID 1159566).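 Also: potency for growth inhibition with lower SYBR green DNA signal.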 The experiment is classed as functional, cell-based.
Experiment [24] can be described thus: P. falciparum 3D7-ScDHODH growth inhibitors, dose response, SYBR Green, dry powder samples (AID 1159570).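 Also: parasite growth measured after 72 hours of compound exposure.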 The experiment is classed as functional, cell-based.
A short description of experiment [25]: A Cell Based Secondary Assay To Explore Cytotoxicity of Compounds that Sensitize Mycobacterium Tuberculosis to Beta-Lactam Antibiotics. In kind it is functional.

Eukaryotic translation initiation factor 4E, sequence (P63073 whole entry): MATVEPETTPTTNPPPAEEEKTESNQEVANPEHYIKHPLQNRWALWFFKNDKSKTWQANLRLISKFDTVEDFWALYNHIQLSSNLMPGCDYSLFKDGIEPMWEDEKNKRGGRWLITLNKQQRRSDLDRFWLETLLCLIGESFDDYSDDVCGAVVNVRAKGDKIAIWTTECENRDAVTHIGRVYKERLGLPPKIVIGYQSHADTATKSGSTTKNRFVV
Paired box protein Pax-8, sequence (Q06710 whole entry): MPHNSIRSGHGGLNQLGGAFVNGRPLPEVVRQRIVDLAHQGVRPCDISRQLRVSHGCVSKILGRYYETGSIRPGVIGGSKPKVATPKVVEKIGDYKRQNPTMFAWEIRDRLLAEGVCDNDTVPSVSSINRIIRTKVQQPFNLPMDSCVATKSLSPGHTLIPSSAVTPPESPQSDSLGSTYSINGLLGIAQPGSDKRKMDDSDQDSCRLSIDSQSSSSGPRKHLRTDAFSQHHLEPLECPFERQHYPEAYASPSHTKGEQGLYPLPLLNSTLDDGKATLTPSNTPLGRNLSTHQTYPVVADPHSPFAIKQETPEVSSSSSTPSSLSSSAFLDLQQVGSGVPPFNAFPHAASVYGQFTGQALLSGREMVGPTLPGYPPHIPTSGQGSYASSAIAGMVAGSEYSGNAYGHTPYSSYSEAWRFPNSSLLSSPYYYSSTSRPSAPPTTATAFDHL

`Cc1nc(N2CCCCC2)sc1C(=O)c1cccc([N+](=O)[O-])c1`: the concentration for a half-maximal effect (EC50) (with BJ [1]; in the experiment with BJ [2]; in the experiment with BJ [3]; in experiment [4]) was > 150 µM (not active) throughout.
Turning to `COc1ccc(C(CC(=O)NCc2ccccc2)Sc2n[nH]c(-c3ccccc3)n2)cc1` (stereo unspecified), the EC50 in the experiment “cells [5]” and in “cells [6]” was > 350 µM (not active) each time.
Turning to `CCCC(C)NC(=O)CSCc1ccc(OC)cc1` (stereo unspecified), the CC50 in [7] is > 40 µM (active).
For `CCCCOP(=O)(OCCCC)C(Nc1ccc(C(=O)OCC)cc1)c1ccncc1` (stereo unspecified), the CC50 in experiment [8] was > 40 µM (active).
For the compound `Cc1ccc(Nc2nc(Oc3ccc(=O)[nH]n3)nc(N(C)C)n2)cc1`, in [9], the IC50 – broadly, the midpoint of a concentration-inhibition curve – is > 64 µM (inactive).
Take `COc1cccc(-n2c(S)nnc2-c2cccc(S(=O)(=O)N(C)C)c2)c1`: the concentration at half-maximal activity (AC50) (usually the midpoint of the concentration-response curve, whichever way the signal moves) in experiment [10] is 39 µM (active).
For `C[C@@H]1CN([C@H](C)CO)C(=O)c2cc(NC(=O)Nc3ccc(F)cc3)ccc2O[C@@H](C)CCCCO[C@@H]1CN(C)Cc1ccc2c(c1)OCO2`, the concentration at half-maximal activity (AC50) on Paired box protein Pax-8 was 10.9 µM (active); in experiment [11], 58.6 µM (active).
Take `CCc1ccc2ncc(S(=O)(=O)c3ccc(C)c(C)c3)c(N3CCCC3)c2c1`: the AC50 in experiment [12] is 48.2 µM (active).
With `O=C(Nc1ccncc1)Nc1ccc(F)cc1`, the IC50 is > 29.9 µM (inactive) in the experiment “cells [13]” and 4.91 µM (active) in experiment [16]. Also, the EC50 (commonly the concentration that produces a half-maximal response) in [14] was 0.548 µM (active); in “cells [15]”, > 29.9 µM (inactive).
In the case of `O=C(Nc1ccc(CSc2ccccc2)cc1)c1ccc(CN2CCOCC2)cc1`, the IC50 in [17] is > 80 µM (inactive).
As for `COc1ccc(-c2noc(CSc3nc(N)c(-c4ccccc4)c(=O)[nH]3)n2)cc1OC`, the IC50 in experiment [9] is > 64 µM (inactive).
As to `C/C(=N\O)C(=O)Nc1ccccc1`, the concentration giving a half-maximal response (EC50) in the experiment “cells [5]” and in “cells [6]” was > 350 µM (not active) throughout.
For `Cc1nc2ccccc2n1CC(O)COCC1CC=CCC1` (stereo unspecified), the half-maximal inhibitory concentration (IC50) is 2.27 µM (active) in experiment [18] and 1.67 µM (active) in [19]. For the same compound, the EC50 in experiment [20] is > 260 µM (inactive).
As for `COc1cccc(C(=O)/C=C2\Sc3ccccc3N2C)c1`, in experiment [8], the CC50 was > 40 µM (active).
Take `COc1cc(CNCCN2CCOCC2)ccc1OCc1ccc(Cl)cc1Cl`: the AC50 in [10] was 17.3 µM (active).
As to `C[C@H]1CCCCO[C@H](CN(C)C(=O)Nc2cccc3ccccc23)[C@@H](C)CN([C@@H](C)CO)C(=O)c2cc(NS(=O)(=O)c3ccc(Cl)cc3)ccc2O1`, the AC50 in [21] was 55.2 µM (active); on Paired box protein Pax-8 it was 4.51 µM (active); in experiment [11], > 70 µM (inactive).
Turning to `Clc1ccc2c(c1)C(c1ccccc1Cl)=NCc1nnc(N3CCN(CCOc4ccccc4)CC3)n1-2`, in experiment [8], the CC50 was > 40 µM (active).
In the case of `CCN(CC(=O)Nc1ccccc1-c1ccccc1)Cc1nc(O)c2ccccc2n1`, the EC50 with BJ [1] was > 75 µM (not active); in the experiment on BJ [2] it was 20.1 µM (active); in the experiment with BJ [3] it was 67.2 µM (active); in experiment [4], 17.9 µM (active).
As to `CC1(C2CC2)NC(=O)NC1=O` (stereo unspecified), the IC50 in experiment [9] is > 64 µM (inactive).
As to `O=S(=O)(/C=C/c1ccccc1)N1CCNCC1`, the concentration for a half-maximal effect (EC50) in “cells [5]” and in the experiment “cells [6]” was > 350 µM (not active) each time.
Turning to `C[C@H](CO)N1C[C@H](C)[C@@H](CN(C)CC2CCCC2)Oc2ncc(C#CCc3ccccc3)cc2C1=O`, the concentration at half-maximal activity (AC50) is 0.28 µM (active) in experiment [22], 0.59 µM (active) in experiment [23] and 3.18 µM (active) in [24].
Turning to `O=C(c1ccc(F)cc1)N1CCC(C(=O)N(Cc2ccccc2)c2ccccc2)CC1`, the CC50 in experiment [7] was > 40 µM (active).
`CCOc1cccc(-c2c(C(=O)N/N=C/c3ccc(C)o3)nnn2-c2nonc2N)c1`: the IC50 in the experiment “cells [13]” was > 29.9 µM (inactive); in experiment [16], 17.2 µM (inactive). In addition, the EC50 in experiment [14] was 3.78 µM (active); in the experiment “cells [15]” it was 19.4 µM (inactive).
As to `O=C(Cc1cccc2ccccc12)N/N=C/c1ccc(OC(=O)/C=C/c2ccco2)cc1`, the CC50 in experiment [25] is 31.2 µM (active).
